The test system of this assay is Rat Aorta. Kind of assay: inhibition of calcium induced contraction of vascular smooth muscle (rat aorta segments). The format is cell-based, male Sprague-Dawley rats. To be noted: 1.0 mM calcium chloride induced contraction, read-out: Percent Inhibition of Rat Aorta; for inhibition at 0.01 µM: at 10^-8 M; for inhibition at 0.1 µM: at 10^-7 M. How it is done:
The property may be observed in a test in which segments of vascular smooth muscle obtained from male Sprague-Dawleyrats are suspended in physiological salt solution in a tissue bath instrumented for recording contractions. After the tissue has been equilibrated, washed in calcium-free physiological salt solution and then depolarized, 1.0 mM calcium chloride is re-added to induce contraction. After the contraction has reached a plateau, tissues are washed and a test compound or vehicle is added to determine the effect achieved by the above cyclic protocol on a second contraction. From measuring the initial contraction as well as the second contraction in the presence of the test compound, the extent of inhibition may be calculated. The results of these tests for representative compounds in the compositions of the present invention are seen in the following table.

For `C(=Cc1ccccc1)CN1CCN(C2c3ccccc3C=Cc3ccccc32)CC1` [1-cinnamyl-4-(5H-dibenzo[a,d]cyclohepten-5-yl)piperazine], the inhibition (as a rule, the change of the read-out against control, counted positive when it falls) at 0.01 µM was 89%.
In the case of `CN1CCN(C2c3ccccc3CSc3ccccc32)CC1` (centres unmarked) [1-(6,11-Dihydrodibenzo[b,e]thiepin-11-yl)-4-methylpiperazine], the inhibition at 0.1 µM was 30%.
`Brc1ccc2c(c1)C(N1CCN(CC=Cc3ccccc3)CC1)c1ccccc1C=C2` (centres unmarked) [1-(3-bromo-5H-dibenzo[a,d]cyclohepten-5-yl)-4-cinnamylpiperazine]: the inhibition at 0.1 µM is 41%.
As to `CCOC(=O)N1CCN(C2c3ccccc3C=Cc3ccccc32)CC1` [Ethyl 4-(5H-Dibenzo[a,d]cyclohepten-5-yl)-1-piperazinecarboxylate], the inhibition at 0.1 µM came out at 37%.
Turning to `CN1CCN(C2c3ccccc3C=Cc3ccc(Br)cc32)CC1` (centres unmarked) [1-(3-Bromo-5H-dibenzo[a,d]cyclohepten-5-yl)-4-methylpiperazine], the inhibition at 0.01 µM is 48%.
Regarding `C1=Cc2ccccc2C(N2CCNCC2)c2ccccc21` [1-(5H-Dibenzo[a,d]cyclohepten-5-yl)piperazine], the inhibition at 0.1 µM turned out to be 34%.
In the case of `CN1CCN(C2c3ccccc3C=Cc3ccc(Cl)cc32)CC1` (centres unmarked) [1-(3-Chloro-5H-dibenzo[a,d]cyclohepten-5-yl)-4-methylpiperazine], the inhibition at 0.1 µM is 90%.
The same measure, in the same setting: with `CSc1ccc2c(c1)C(N1CCN(C)CC1)c1ccccc1C=C2` (centres unmarked) [1-Methyl-4-(3-methylthio-5H-dibenzo[a,d]cyclohepten-5-yl)piperazine] the figure was 76%; with `CN1CCN(C2c3ccccc3C=Cc3ccccc32)CC1` [1-(5H-dibenzo[a,d]cyclohepten-5-yl)-4-methylpiperazine], 59%; with `COc1ccc2c(c1)C(N1CCN(C)CC1)c1ccccc1CC2` (centres unmarked) [1-(10,11-Dihydro-3-methoxy-5H-dibenzo[a,d]cyclohepten-5-yl)-4-methylpiperazine], 36%.
On the same count and under the same terms, to `COc1ccc2c(c1)C(N1CCN(C)CC1)c1ccccc1C=C2` (centres unmarked) [1-(3-Methoxy-5H-dibenzo[a,d]cyclohepten-5-yl)-4-methylpiperazine] belongs 65%.

Source of the values: patent US4616023A, “Pharmaceutical compositions of 4-(dibenzo-[a,d]cycloalkenyl)piperazine compounds and methods” (Merck & Co., Inc., priority 1985, dated 1986).
